Reference: PubChem BioAssay (NCI)
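All cell lines were grown in 96-well plates and treated with compound for 48 hours. GI50 marks 50% less growth. TGI marks complete inhibition of growth.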

How the values were obtained:
Assay in all cases: inhibition of tumour cell growth, NCI panel, 48 h
[1] = system: CCRF-CEM leukemia
[2] = system: MDA-MB-435
[3] = system: BT-549 breast
[4] = system: HT29 colon
[5] = system: OVCAR-5 ovarian
[6] = system: NCI-H226 lung
[7] = system: HOP-62 NSCLC
[8] = system: U251 CNS
[9] = system: UACC-62 melanoma
[10] = system: SK-MEL-2 melanoma
[11] = system: K-562 leukemia
[12] = system: HCT-15 colon
[13] = system: MDA-MB-231 breast
[14] = system: A498 renal
[15] = system: MOLT-4 leukemia
[16] = system: LOX IMVI melanoma
[17] = system: NCI-H23 lung
[18] = system: EKVX NSCLC
[19] = system: ACHN renal
[20] = system: KM12 colon
[21] = system: HS 578T breast
[22] = system: SK-MEL-5 melanoma
[23] = system: OVCAR-4 ovarian
[24] = system: HOP-92 NSCLC
[25] = system: NCI/ADR-RES ovarian
[26] = system: A549 NSCLC
[27] = system: SN12C renal
[28] = system: SF-295 CNS
[29] = system: T-47D breast
[30] = system: DU-145 prostate
[31] = system: SK-MEL-28 melanoma
[32] = system: MALME-3M melanoma
[33] = system: HL-60(TB) leukemia
[34] = system: 786-0 renal
[35] = system: SR leukemia
[36] = system: NCI-H522 lung
[37] = system: SNB-75 CNS
[38] = system: UO-31 renal
[39] = system: TK-10 renal
[40] = system: RPMI-8226 leukemia
[41] = system: SW-620 colon
[42] = system: RXF 393 renal
[43] = system: OVCAR-8 ovarian
[44] = system: HCC-2998 colon
[45] = system: OVCAR-3 ovarian
[46] = system: PC-3 prostate
[47] = system: SF-268 CNS
[48] = system: M14 melanoma
[49] = system: CAKI-1 renal
[50] = system: NCI-H460 lung
[51] = system: SF-539 CNS
[52] = system: IGROV1 ovarian
[53] = system: MCF7 breast
[54] = system: UACC-257 melanoma
[55] = system: HCT-116 colon
[56] = system: COLO 205 colon
[57] = system: SK-OV-3 ovarian
[58] = system: SNB-19 CNS

Nc1cccc2c1C(=O)c1cccc(NC(=O)c3ccccc3)c1C2=O showed a GI50 [1] of 401 nM, a TGI [1] greater than 100000 nM and a GI50 [2] of 36.4 nM. The TGI [2] was 414 nM, the GI50 [3] was 674 nM and the TGI [3] was 33900 nM. For the same compound, the GI50 [4] was 291 nM, the TGI [4] was 2670 nM and the GI50 [5] was 1920 nM. The TGI [5] was greater than 100000 nM, the GI50 [6] was 1700 nM and the TGI [6] was greater than 100000 nM. The GI50 [7] was 535 nM, the TGI [7] was 21500 nM and the GI50 [8] was 540 nM. It also gave a TGI [8] of 13800 nM, a GI50 [9] of 221 nM and a TGI [9] of 14000 nM. The GI50 [10] was 250 nM, the TGI [10] was 7260 nM and the GI50 [11] was 133 nM. The TGI [11] was greater than 100000 nM, the GI50 [12] was 448 nM and the TGI [12] was greater than 100000 nM. The GI50 [13] was 1060 nM, the TGI [13] was greater than 100000 nM and the GI50 [14] was 306 nM. It also gave a TGI [14] of 6560 nM, a GI50 [15] of 751 nM and a TGI [15] greater than 100000 nM. It also gave a GI50 [16] of 565 nM, a TGI [16] greater than 100000 nM and a GI50 [17] of 903 nM. It also gave a TGI [17] greater than 100000 nM, a GI50 [18] of 421 nM and a TGI [18] of 4520 nM. It also gave a GI50 [19] of 590 nM, a TGI [19] greater than 100000 nM and a GI50 [20] of 374 nM. It also gave a TGI [20] greater than 100000 nM, a GI50 [21] of 412 nM and a TGI [21] greater than 53100 nM. It also gave a GI50 [22] of 355 nM, a TGI [22] of 15000 nM and a GI50 [23] of 5070 nM. For the same compound, the TGI [23] was greater than 100000 nM, the GI50 [24] was 340 nM and the TGI [24] was 6720 nM. For the same compound, the GI50 [25] was 212 nM, the GI50 [26] was 677 nM and the TGI [26] was 4660 nM. It also gave a GI50 [27] of 723 nM, a TGI [27] greater than 80600 nM and a GI50 [28] of 166 nM. The TGI [28] was 1350 nM, the GI50 [29] was 1100 nM and the TGI [29] was greater than 100000 nM. It also gave a GI50 [30] of 561 nM, a TGI [30] greater than 22600 nM and a GI50 [31] of 1110 nM. The TGI [31] was 21000 nM, the GI50 [32] was 242 nM and the TGI [32] was 7090 nM. The GI50 [33] was 292 nM, the TGI [33] was greater than 100000 nM and the GI50 [34] was 646 nM. The TGI [34] was 15700 nM, the GI50 [35] was 165 nM and the TGI [35] was greater than 100000 nM. For the same compound, the GI50 [36] was 65.5 nM, the TGI [36] was 618 nM and the GI50 [37] was 280 nM. For the same compound, the TGI [37] was 3880 nM, the GI50 [38] was 474 nM and the TGI [38] was greater than 100000 nM. It also gave a GI50 [39] of 1130 nM, a TGI [39] of 8130 nM and a GI50 [40] of 462 nM. For the same compound, the TGI [40] was greater than 100000 nM, the GI50 [41] was 267 nM and the TGI [41] was greater than 100000 nM. It also gave a GI50 [42] of 363 nM, a TGI [42] of 2950 nM and a GI50 [43] of 784 nM. The TGI [43] was greater than 38800 nM, the GI50 [44] was 2790 nM and the TGI [44] was greater than 100000 nM. It also gave a GI50 [45] of 254 nM, a TGI [45] of 1470 nM and a GI50 [46] of 374 nM. It also gave a TGI [46] greater than 100000 nM, a GI50 [47] of 576 nM and a TGI [47] greater than 100000 nM. The GI50 [48] was 400 nM, the TGI [48] was 36400 nM and the GI50 [49] was 229 nM. The TGI [49] was 3010 nM, the GI50 [50] was 371 nM and the TGI [50] was greater than 32600 nM. For the same compound, the GI50 [51] was 292 nM, the TGI [51] was 13000 nM and the GI50 [52] was 503 nM. The TGI [52] was greater than 81400 nM, the GI50 [53] was 258 nM and the TGI [53] was 21300 nM. The GI50 [54] was 614 nM, the TGI [54] was 64800 nM and the GI50 [55] was 401 nM. It also gave a TGI [55] of 5170 nM, a GI50 [56] of 354 nM and a TGI [56] of 6740 nM. It also gave a GI50 [57] of 425 nM, a TGI [57] of 9240 nM and a GI50 [58] of 591 nM. For the same compound, the TGI [58] was greater than 100000 nM.
